According to patent US20140309192A1, “MODULATORS OF THE G PROTEIN-COUPLED MAS RECEPTOR AND THE TREATMENT OF DISORDERS RELATED THERETO” (ARENA PHARMACEUTICALS, INC., priority 2011, published 2014):

How the values were obtained:
rat Mas receptor = target: T1, rat Mas receptor (Rattus norvegicus, UniProt P12526); experiment: cAMP Dynamic2 HTRF assay, HEK293 cells stably expressing rat Mas receptor; format: cell-based; settings: forskolin stimulated cAMP, means ± SEM, NR = No Response, read-out: Gi/cAMP IC50
T1 construct: expressed in transfected cells; host or cells: HEK293 (ATCC CRL-1573)
T1 sequence (P12526 1-324): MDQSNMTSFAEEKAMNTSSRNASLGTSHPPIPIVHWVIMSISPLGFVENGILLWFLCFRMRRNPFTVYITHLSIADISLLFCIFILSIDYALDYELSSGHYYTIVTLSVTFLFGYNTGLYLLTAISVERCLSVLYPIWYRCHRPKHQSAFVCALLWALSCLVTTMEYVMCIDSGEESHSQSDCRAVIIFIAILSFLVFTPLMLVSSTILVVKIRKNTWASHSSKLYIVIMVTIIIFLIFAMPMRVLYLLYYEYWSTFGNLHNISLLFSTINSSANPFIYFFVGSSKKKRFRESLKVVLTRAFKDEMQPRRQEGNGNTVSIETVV
Experimental: cAMP accumulation in HEK293 cells stably expressing human or rat Mas receptors was determined by the 384 well cAMP Dynamic2 Homogenous Time-Resolved Fluorescence (HTRF®) assay (CisBio Cat#62AM4PEB) following the manufacturer's protocol. Briefly, cells were plated at 30,000 or 1000 cells per well in 5 μL stimulation buffer (PBS containing 500 μM IBMX and 0.1% bovine serum albumin), 5 μL of Mas compounds diluted in PBS were added to each well and serial diluted cAMP standards were also added to corresponding wells at this step. For detecting […] activities, 10 μM forskolin was included with the compounds for a final concentration of 5 μM at the stimulation step. Following 1 h stimulation at room temperature, d2-labeled cAMP and anti-cAMP cryptate conjugate diluted in detection buffer (included in the kit) were added to cells sequentially at 5 μl per well. The plates were incubated further for 1 h at room temperature. Ratiometic measurements of fluorescence emission at 665 nm and 620 nm were obtained by Pherastar fluorometer (BMG Labtech) and cAMP levels in each well were calculated according to the standard curves on each plate. IC50 values were obtained by fitting data to a nonlinear curve-fitting program (GraphPad Software, Inc., La Jolla Calif.).

Male Sprague-Dawley rats [1] = experiment: Myocardial ischemia/reperfusion injury in rats, infarct size (Example 4); format: in vivo, rat
Experimental: Adult rats were anesthetized with sodium pentobarbital (50 mg/kg i.p.) and placed in the supine position on a surgery frame with a heating pad (37° C.) beneath. Rats were tracheostomized and ventilated with a SAR-830 small-animal ventilator (Model 683, Harvard Apparatus) to provide room air at a tidal volume of 2.5 mL/stroke and at a rate of 70 stroke/min. Polyethylene catheters were placed in the right internal carotid artery and the external jugular vein for measurement of mean arterial blood pressure and infusion of drug or vehicle, respectively.
Myocardial I/R injury was produced as follows. A left thoracotomy was performed approximately 20 mm from the sternum to expose the heart at the fifth intercostal space. […]
Animals were randomly divided into the following 4 groups: (1-3) low, medium, and high doses of Compound 170 administered by continuous i.v. infusion starting 30 min before coronary artery ligation (n=6 per dose), and (4) 20% HPBCD (vehicle, hydroxypropyl-β-cyclodextrin) administered by continuous i.v. infusion beginning 30 min before coronary artery ligation (n=6). […] Mean arterial blood pressure was measured after stabilization and just prior to drug infusion (baseline) and again following 25 min of drug or vehicle infusion, before coronary artery ligation. […]

Male Sprague-Dawley rats [2] = experiment: Left kidney artery ischemia reperfusion injury model; format: in vivo, rat
Experimental: Rats were anesthetized with pentobarbital (70 mg/kg). Normal body temperature was maintained by placing the animals on heating pads until recovery from anesthesia. Following a midline abdominal incision, the left renal pedicle was localized and the renal artery and vein were dissected. An atraumatic microvascular clamp was placed, and the left renal artery was occluded for 45 minutes. After inspection for signs of ischemia, the wound was covered with PBS soaked cotton. After release of the clamp, restoration of blood-flow was inspected visually and the wound was closed with surgical staples and the animal was allowed to recover. 24 hours following the end of ischemia blood was collected and markers of kidney function, creatinine and blood urea nitrogen (BUN) were measured.
15 minutes prior to renal artery occlusion either vehicle (20% hydroxypropyl-β-cyclodextrin) or a loading dose of 6.26 mg/kg Mas inverse agonist (Compound 170) was administered i.v. followed by a i.v. maintenance dose of 1.64 mg/kg/hr lasting for 2 hours following removal of the renal artery clamp. A renoprotective positive control peptide, Atrial natriuretic peptide (ANP, 0.2 μg/kg/min), was administered by continuous i.v. infusion starting 15 minutes prior to renal artery occlusion and lasting for 2 hours following removal of the renal artery clamp, see FIG. 43 for protocol.

[3] = 6.26 mg/kg loading + 1.64 mg/kg/hr i.v., 45 minutes occlusion, blood 24 hours after ischemia

SMILES: COc1cc([N+](=O)[O-])ccc1S(=O)(=O)N1CC(CN2CCN(c3ccccn3)CC2)C(c2cccc(F)c2)C1 (stereo not drawn) [AR234960]
- IC50 (rat Mas receptor): 1710 ± 11 nM

SMILES: NC(=O)[C@H](CO)NCc1ccc(C(=O)Nc2ccc(Cl)cc2N2CCN(CCC(F)(F)F)CC2)c(F)c1F [Compound 170, (S)-4-((1-Amino-3-hydroxy-1-oxopropan-2-ylamino)methyl)-N-(4-chloro-2-(4-(3,3,3-trifluoropropyl)piperazin-1-yl)phenyl)-2,3-difluorobenzamide]
- reduction of myocardial infarction size (Male Sprague-Dawley rats [1]; FIG. 5, rats subjected to coronary artery ligation and reperfusion): dose dependent effect
- myocardial infarct size after reperfusion compared to vehicle treatment (Male Sprague-Dawley rats [1]; medium (1.878 mg/kg loading + 0.492 mg/kg/h) and high dose (6.26 mg/kg loading + 1.64 mg/kg/h) i.v., 30 min ischemia, 2 h reperfusion): significant decrease
- kidney function as measured by blood creatinine (Male Sprague-Dawley rats [2]; [3]): improves kidney function
- kidney function as measured by blood urea nitrogen (BUN) (Male Sprague-Dawley rats [2]; [3]): improves kidney function
- degree of renal protection (Male Sprague-Dawley rats [2]; compared with ANP 0.2 μg/kg/min): at the same activity compared to ANP
